From patent publication US20240041042A1, “1-(PYRIDYL)-5-AZINYLPYRAZOLE DERIVATIVES, AND THEIR USE FOR CONTROL OF UNDESIRED PLANT GROWTH” (Bayer Aktiengesellschaft, priority 2020, published 2024)
Like-named read-outs stand apart in the source and are kept apart here.

Assays:
Assay type in all cases: in vivo
[1] = test system: Abutilon theophrasti (ABUTH); experiment: Pre-emergence herbicidal action against ABUTH; conditions: Dosage column 320 g/ha (title prints 3200 g/ha); scored visually after about 3 weeks; 100% = plants have died
In short: (§1)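 Application rates ran to 320 g/ha or lower, with several dosages tested on the same weeds. The compound, as wettable powder or emulsion concentrate, is sprayed pre-emergence onto soil over sown seeds; greenhouse growth follows, and effect is rated visually after roughly 3 weeks.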

[2] = test system: Alopecurus myosuroides (ALOMY); experiment: Pre-emergence herbicidal action against ALOMY; conditions: 320 g/ha; scored visually after about 3 weeks; 100% = plants have died
In short: as §1

[3] = test system: Amaranthus retroflexus (AMARE); experiment: Pre-emergence herbicidal action against AMARE; conditions: visual scoring after about 3 weeks vs untreated controls
In short: as §1

Avena fatua (AVEFA) [4] = experiment: Pre-emergence herbicidal action against AVEFA; conditions: visual scoring after about 3 weeks vs untreated controls
In short: as §1

[5] = test system: Echinochloa crus-galli (ECHCG); experiment: Pre-emergence herbicidal action against ECHCG
In short: as §1

Lolium rigidum (LOLRI) [6] = experiment: Pre-emergence herbicidal action against LOLRI
In short: as §1

[7] = test system: Matricaria inodora (MATIN); experiment: Pre-emergence herbicidal action against MATIN
In short: as §1

[8] = test system: Pharbitis purpurea (PHBPU); experiment: Pre-emergence herbicidal action against PHBPU
In short: as §1

[9] = test system: Polygonum convolvulus (POLCO); experiment: Pre-emergence herbicidal action against POLCO; conditions: dosage 320 g/ha
In short: as §1

Setaria viridis (SETVI) [10] = experiment: Pre-emergence herbicidal action against SETVI
In short: as §1

[11] = test system: Verconica persica (VERPE); experiment: Pre-emergence herbicidal action against VERPE; conditions: dosage 320 g/ha
In short: as §1

Viola tricolor (VIOTR) [12] = experiment: Pre-emergence herbicidal action against VIOTR
In short: as §1

Glycine max (GLXMA) = conditions: pre-emergence, 80 g/ha, crop plant compatibility, in comparison to untreated controls
In short: (§2)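 Crop injury rated visually in percent against untreated plants roughly 3 weeks after treatment (0% no effect, 100% plants dead). Compounds, as WP or EC with 0.5% additive in 600 l/ha water, were applied to the covering soil right after sowing; greenhouse growth. Suffixes a, b, c denote different dosages.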

[13] = test system: Abutilon theophrasti (ABUTH); experiment: Post-emergence herbicidal action against ABUTH; conditions: 80 g/ha, visual rating about 3 weeks after treatment vs untreated controls (100% = plants have died, 0% = like control plants)
In short: (§3)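 Greenhouse plants sprayed at the one-leaf stage, 2–3 weeks after sowing, with WP or EC formulations plus 0.5% additive at 600 l/ha water. Activity rated visually after about 3 weeks versus untreated controls (100% = dead, 0% = like control), at 320 g/ha or lower.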

[14] = test system: Alopecurus myosuroides (ALOMY); experiment: Post-emergence herbicidal action against ALOMY; conditions: visual rating about 3 weeks after treatment vs untreated controls (100% = plants have died, 0% = like control plants)
In short: as §3

[15] = test system: Amaranthus retroflexus (AMARE); experiment: Post-emergence herbicidal action against AMARE
In short: as §3

Avena fatua (AVEFA) [16] = experiment: Post-emergence herbicidal action against AVEFA; conditions: visual rating about 3 weeks after treatment
In short: as §3

[17] = test system: Echinochloa crus-galli (ECHCG); experiment: Post-emergence herbicidal action against ECHCG
In short: as §3

[18] = test system: Matricaria inodora (MATIN); experiment: Post-emergence herbicidal action against MATIN
In short: as §3

[19] = test system: Pharbitis purpurea (PHBPU); experiment: Post-emergence herbicidal action against PHBPU
In short: as §3

[20] = test system: Polygonum convolvulus (POLCO); experiment: Post-emergence herbicidal action against POLCO
In short: as §3

Setaria viridis (SETVI) [21] = experiment: Post-emergence herbicidal action against SETVI
In short: as §3

[22] = test system: Verconica persica (VERPE); experiment: Post-emergence herbicidal action against VERPE
In short: as §3

Oryza sativa (ORYSA) = conditions: crop plant compatibility
In short: (§4)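 One-leaf-stage crops (2–3 wk post-sowing, sandy loam, greenhouse) sprayed on green parts; 0.5% additive, 600 l/ha water. Rated by eye ~3 wk later, % vs untreated; suffixes a/b/c mark different dosages.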

Zea mays (ZEAMX) [23] = test system: Zea mays (ZEAMX)
In short: as §4

[24] = test system: Digitaria sanguinalis (DIGSA); experiment: Pre-emergence herbicidal action against DIGSA
In short: as §1

Zea mays (ZEAMX) [25] = conditions: pre-emergence, 80 g/ha, crop plant compatibility, in comparison to untreated controls
In short: as §2

[26] = test system: Digitaria sanguinalis (DIGSA); experiment: Post-emergence herbicidal action against DIGSA; conditions: 320 g/ha, visual rating about 3 weeks after treatment
In short: as §3

Lolium rigidum (LOLRI) [27] = experiment: Post-emergence herbicidal action against LOLRI
In short: as §3

Viola tricolor (VIOTR) [28] = experiment: Post-emergence herbicidal action against VIOTR
In short: as §3

Structure (SMILES)	Pre-emergence action against ALOMY [2] [%]	Pre-emergence action against AMARE in % ([3]; 320 g/ha) [%]	Pre-emergence action against AVEFA in % (Avena fatua (AVEFA) [4]; 320 g/ha) [%]	Pre-emergence action against ECHCG in % ([5]; dosage 320 g/ha) [%]	Pre-emergence action against LOLRI in % (Lolium rigidum (LOLRI) [6]; dosage 80 g/ha) [%]	Pre-emergence action against LOLRI in % (Lolium rigidum (LOLRI) [6]; dosage 320 g/ha) [%]	Pre-emergence action against MATIN in % ([7]; dosage 320 g/ha) [%]	Pre-emergence action against POLCO in % [9] [%]	Pre-emergence action against SETVI in % (Setaria viridis (SETVI) [10]; dosage 320 g/ha) [%]	Pre-emergence action against VERPE in % [11] [%]	Pre-emergence action against VIOTR in % (Viola tricolor (VIOTR) [12]; 320 g/ha, Viola tricolor) [%]	Pre-emergence action against VIOTR in % (Viola tricolor (VIOTR) [12]; dosage 80 g/ha) [%]	Pre-emergence action against GLXMA in % (Glycine max (GLXMA)) [%]	Post-emergence action against AVEFA in % (Avena fatua (AVEFA) [16]; 80 g/ha) [%]	Post-emergence action against ECHCG in % ([17]; dosage 80 g/ha) [%]	Post-emergence action against POLCO in % ([20]; dosage 80 g/ha) [%]	Post-emergence action against SETVI in % (Setaria viridis (SETVI) [21]; dosage 80 g/ha) [%]	Post-emergence action against VERPE in % ([22]; dosage 80 g/ha) [%]	Pre-emergence action against DIGSA in % ([24]; dosage 320 g/ha) [%]	Post-emergence action against ALOMY in % ([14]; 320 g/ha) [%]	also measured
COC(=O)CCOC(=O)COc1nn(-c2ccccn2)c(-c2cncc(F)c2)c1Br [Example I-77]	90	100	90	100	90	100	90	90	100	90	100	90	0	90	90	80	80	90			Pre-emergence action against ABUTH [1]: 80%; Pre-emergence action against AMARE in % ([3]; 80 g/ha): 90%; Pre-emergence action against AVEFA in % (Avena fatua (AVEFA) [4]; 80 g/ha): 80%; Pre-emergence action against MATIN in % ([7]; dosage 80 g/ha): 80%; Pre-emergence action against PHBPU in % ([8]; dosage 80 g/ha): 80%; Pre-emergence action against PHBPU in % ([8]; dosage 320 g/ha): 90%; Post-emergence action against ABUTH in % [13]: 80%; Post-emergence action against ALOMY in % ([14]; 80 g/ha): 90%; Post-emergence action against AMARE in % ([15]; 80 g/ha, visual rating about 3 weeks after treatment vs untreated controls (100% = plants have died, 0% = like control plants)): 80%; Post-emergence action against MATIN in % ([18]; dosage 80 g/ha): 90%; Post-emergence action against PHBPU in % ([19]; dosage 80 g/ha): 90%; Post-emergence action against ORYSA in % (Oryza sativa (ORYSA); 20 g/ha, effect vs untreated controls): 0%; Post-emergence action against ZEAMX in % (crop plant compatibility) (Zea mays (ZEAMX) [23]; 20 g/ha, ZEAMX, effect in comparison to untreated controls): 0%
COC(=O)CCOC(=O)[C@@H](C)Oc1nn(-c2ccccn2)c(-c2ccc(Cl)nc2)c1Br [Example I-244]	90	90				100		80			90		0			80			90	80	Pre-emergence action against ZEAMX in % (Zea mays (ZEAMX) [25]): 0%; Post-emergence action against DIGSA in % [26]: 80%; Post-emergence action against LOLRI in % (Lolium rigidum (LOLRI) [27]; dosage 320 g/ha): 80%; Post-emergence action against PHBPU in % ([19]; dosage 320 g/ha): 80%; Post-emergence action against POLCO in % ([20]; dosage 320 g/ha): 80%; Post-emergence action against VIOTR in % (Viola tricolor (VIOTR) [28]; 80 g/ha): 80%; Post-emergence action against VIOTR in % (Viola tricolor (VIOTR) [28]; 320 g/ha): 80%; Post-emergence action against ORYSA in % (Oryza sativa (ORYSA); 320 g/ha, effect in comparison to untreated controls): 0%; Post-emergence action against ZEAMX in % (Zea mays (ZEAMX) [23]; crop plant compatibility, 80 g/ha, effect vs untreated controls): 20%
COC(=O)[C@@H](C)Oc1nn(-c2nc(F)ccc2F)c(-c2ccc(F)nc2)c1C1CC1 [Example I-298]	90	100	90	100	90	100	90		100	100	100	100	20	80	80		90	80	100	90	Pre-emergence action against DIGSA in % ([24]; 80 g/ha, visual scoring after about 3 weeks vs untreated controls): 100%; Pre-emergence action against ECHCG in % ([5]; dosage 80 g/ha): 90%; Pre-emergence action against SETVI in % (Setaria viridis (SETVI) [10]; dosage 80 g/ha): 100%; Post-emergence action against AMARE in % ([15]; 320 g/ha, visual rating about 3 weeks after treatment): 80%; Post-emergence action against AVEFA in % (Avena fatua (AVEFA) [16]; 320 g/ha): 90%; Post-emergence action against DIGSA in % [26]: 80%; Post-emergence action against ECHCG in % ([17]; dosage 320 g/ha): 90%; Post-emergence action against LOLRI in % (Lolium rigidum (LOLRI) [27]; dosage 80 g/ha): 90%; Post-emergence action against LOLRI in % (Lolium rigidum (LOLRI) [27]; dosage 320 g/ha): 90%; Post-emergence action against MATIN in % ([18]; dosage 320 g/ha): 80%; Post-emergence action against PHBPU in % ([19]; dosage 320 g/ha): 90%; Post-emergence action against POLCO in % ([20]; dosage 320 g/ha): 80%; Post-emergence action against SETVI in % (Setaria viridis (SETVI) [21]; dosage 320 g/ha): 90%; Post-emergence action against VERPE in % ([22]; 320 g/ha, VERPE): 80%; Post-emergence action against VIOTR in % (Viola tricolor (VIOTR) [28]; 80 g/ha): 80%; Post-emergence action against VIOTR in % (Viola tricolor (VIOTR) [28]; 320 g/ha): 90%; Post-emergence action against ORYSA in % (Oryza sativa (ORYSA); 80 g/ha, effect in comparison to untreated controls): 20%
